Consider 7 compounds from ChEMBL document CHEMBL5303304, “EUbOPEN Chemogenomics Library - IncuCyte” (2023).

What all share (format): toxicity, cell-based
In one data set the test system is Fibroblast. Nature of the data set: Incucyte cell viability with human fibroblast. To be noted: 10 µM, compound concentration 10 uM.
The test system of another data set is HEK-293T. Nature of the data set: Incucyte cell viability with HEK293T. The conditions noted are these: human, 10 µM, compound concentration 10 uM.
A further data set concerns U2OS. The experiment in a line: Incucyte cell viability with U2OS. The conditions noted are these: human, 10 µM, compound concentration 10 uM.
Note: unitless GR value; below 1 slowed growth and below 0 cell loss.

Regarding `C[S+]([O-])c1ccc(-c2nc(-c3cccc(I)c3)c(-c3ccncc3)[nH]2)cc1` (stereo not given), the “Growth Rate” value is 0.66 in the data set with Fibroblast (6 h, replicate number 2); -0.57 in the data set with HEK-293T (0 h, replicate number 1); -1 in the data set with HEK-293T (0 h, replicate number 2); 0.87 in the data set on HEK-293T (12 h, replicate number 1); 0.99 in the data set on HEK-293T (18 h, replicate number 1); 0.99 with HEK-293T (24 h, replicate number 1). For the same compound, the “Growth Rate” value is listed as -0.99 in the data set with U2OS (0 h, replicate number 1); 0.79 with U2OS (6 h, replicate number 2); 0.8 in the data set on U2OS (12 h, replicate number 2); 0.97 in the data set on U2OS (18 h, replicate number 1); 0.75 with U2OS (18 h, replicate number 2); 1 in the data set on U2OS (24 h, replicate number 1). The “Growth Rate” value in the data set with U2OS (24 h, replicate number 2) turned out to be 0.65.
`NC(=O)c1sc2nc(N3CCC(NC[C@H](O)c4ccccn4)CC3)cc(C(F)(F)F)c2c1N`: the “Growth Rate” value in the data set on Fibroblast (0 h, replicate number 1) is 0.86; in the data set on Fibroblast (0 h, replicate number 2), 0.11; with Fibroblast (12 h, replicate number 1), 0.88; in the data set with HEK-293T (0 h, replicate number 1) it was -0.64; with U2OS (0 h, replicate number 1), 0.49; in the data set on U2OS (0 h, replicate number 2) it was 0.65. For the same compound, the “Growth Rate” value is -0.12 in the data set with U2OS (6 h, replicate number 2); 0.93 with U2OS (12 h, replicate number 1); 0.54 in the data set with U2OS (12 h, replicate number 2); 0.69 with U2OS (18 h, replicate number 2); -0.15 with U2OS (24 h, replicate number 2).
In the case of `CC(=O)O.NCCCc1c(C(=O)O)[nH]c2ccc(C(=O)Nc3ccccc3)cc12`, the “Growth Rate” value in the data set with Fibroblast (0 h, replicate number 1) came out at 0.6; with Fibroblast (6 h, replicate number 1), 0.95; with Fibroblast (6 h, replicate number 2), 0.33; in the data set with Fibroblast (12 h, replicate number 2), 0.82; in the data set on Fibroblast (18 h, replicate number 1), 0.95; in the data set with Fibroblast (18 h, replicate number 2), 0.71. The “Growth Rate” value came to 0.77 in the data set on Fibroblast (24 h, replicate number 2); 0.19 in the data set with HEK-293T (0 h, replicate number 1); 0.53 in the data set on HEK-293T (0 h, replicate number 2); 0.96 in the data set with HEK-293T (12 h, replicate number 2); 0.93 with HEK-293T (18 h, replicate number 2); 0.53 in the data set on U2OS (0 h, replicate number 1). For the same compound, the “Growth Rate” value in the data set on U2OS (6 h, replicate number 1) was found to be 0.76; in the data set with U2OS (12 h, replicate number 1) it was 0.87; in the data set on U2OS (18 h, replicate number 1), 0.92; in the data set with U2OS (24 h, replicate number 1), 0.93.
Take `Cc1ncc(C(=O)Nc2cc(C(C)(C)C)on2)cc1-n1cc(-c2cnn(C)c2C)nn1.Cl`: the “Growth Rate” value with Fibroblast (0 h, replicate number 1) is recorded as 0.92; with Fibroblast (0 h, replicate number 2), 0.23; in the data set with Fibroblast (6 h, replicate number 1), 0.69; with Fibroblast (6 h, replicate number 2) it was 0.14; with Fibroblast (12 h, replicate number 1), 0.95; with Fibroblast (12 h, replicate number 2), 0.79. In addition, the “Growth Rate” value is listed as 0.95 with Fibroblast (24 h, replicate number 2); -0.6 with HEK-293T (0 h, replicate number 1); 0.99 with HEK-293T (6 h, replicate number 1); 0.65 in the data set on HEK-293T (6 h, replicate number 2); 0.8 in the data set with U2OS (6 h, replicate number 1); 0.94 in the data set on U2OS (6 h, replicate number 2). In addition, the “Growth Rate” value with U2OS (18 h, replicate number 2) is 0.92; in the data set on U2OS (24 h, replicate number 2), 0.58.
For the compound `COC(=O)Nc1nc2c(s1)-c1c(c(-c3cccnc3)nn1-c1ccc(C3(N(C)C)CC3)cc1)CC2.Cl.Cl`, the “Growth Rate” value with Fibroblast (0 h, replicate number 1) is recorded as -0.29; with Fibroblast (0 h, replicate number 2), -1; with HEK-293T (0 h, replicate number 1) it was -1; in the data set with U2OS (0 h, replicate number 1) it was -0.99; with U2OS (12 h, replicate number 2), 0.96; in the data set with U2OS (18 h, replicate number 2) it was 0.74. The “Growth Rate” value in the data set with U2OS (24 h, replicate number 2) is recorded as 0.64.
Regarding `Cc1ccc(C(=O)Nc2cc(N3CCN(C)CC3)cc(C(F)(F)F)c2)cc1-n1cc(-c2cnn(C)c2C)nn1.Cl`, the “Growth Rate” value in the data set with Fibroblast (0 h, replicate number 2) was 0.61; with Fibroblast (6 h, replicate number 1), 0.66; with Fibroblast (6 h, replicate number 2), -0.05; with Fibroblast (12 h, replicate number 1), 0.43; in the data set on Fibroblast (12 h, replicate number 2) it was 0.19; in the data set on Fibroblast (18 h, replicate number 1), 0.22. In addition, the “Growth Rate” value in the data set with Fibroblast (18 h, replicate number 2) is 0.15; in the data set with Fibroblast (24 h, replicate number 1), 0.44; in the data set with Fibroblast (24 h, replicate number 2) it was 0.18; in the data set with HEK-293T (0 h, replicate number 1) it was -0.85; in the data set with U2OS (0 h, replicate number 1), 0.94; in the data set with U2OS (6 h, replicate number 1) it was 0.35. The “Growth Rate” value with U2OS (6 h, replicate number 2) was 0.77; in the data set with U2OS (12 h, replicate number 1), 0.71; in the data set on U2OS (12 h, replicate number 2), 0.58; with U2OS (18 h, replicate number 1), 0.92; in the data set on U2OS (18 h, replicate number 2), 0.73; with U2OS (24 h, replicate number 1), 0.82. In addition, in the data set with U2OS (24 h, replicate number 2), the “Growth Rate” value was 0.66.
With `Cc1ccc(-n2nc(C(C)(C)C)cc2NC(=O)Nc2ccccc2F)cc1`, the “Growth Rate” value in the data set on Fibroblast (6 h, replicate number 1) is on record as -0.08; in the data set with Fibroblast (6 h, replicate number 2), 0.02; in the data set on Fibroblast (12 h, replicate number 1) it was 0.68; in the data set with Fibroblast (12 h, replicate number 2), 0.82; in the data set on Fibroblast (18 h, replicate number 1), 0.86; in the data set on Fibroblast (24 h, replicate number 1), 0.91. In addition, the “Growth Rate” value in the data set with HEK-293T (0 h, replicate number 1) is given as -0.4; in the data set on U2OS (0 h, replicate number 2), -0.52; with U2OS (6 h, replicate number 1), 0.9; in the data set on U2OS (6 h, replicate number 2), 0.67; with U2OS (12 h, replicate number 1) it was 0.91; in the data set on U2OS (12 h, replicate number 2), 0.72. Besides, the “Growth Rate” value with U2OS (18 h, replicate number 1) amounted to 0.79; with U2OS (24 h, replicate number 1), 0.72; in the data set on U2OS (24 h, replicate number 2) it was 0.85.
